Measurements: the CheMixHub viscosity set
± gives the uncertainty stated by the source.

Test: xn = mol fraction of the nth substance listed

CCCC[n+]1ccn(C)c1.N#C[C-](C#N)C#N + CCCCn1cc[n+](C)c1.O=S(=O)([N-]S(=O)(=O)C(F)(F)F)C(F)(F)F
Settings | viscosity [mPa·s]
298.15 K, 100 kPa, x2 = 0.751 | 43.15 ± 2.2

CC(C)OCCO + CCCN
viscosity [mPa·s], 101.33 kPa
Settings | 298.15 K | 308.15 K | 318.15 K
x1 = 0.0207 | 0.381 ± 0.004 | 0.347 ± 0.004 | 0.305 ± 0.004
x1 = 0.0475 | 0.413 ± 0.004 | 0.372 ± 0.004 | 0.328 ± 0.004
x1 = 0.0745 | 0.451 ± 0.005 | 0.398 ± 0.004 | 0.35 ± 0.004
x1 = 0.1534 | 0.575 ± 0.006 | 0.493 ± 0.005 | 0.425 ± 0.005
x1 = 0.2413 | 0.732 ± 0.008 | 0.615 ± 0.007 | 0.517 ± 0.006
x1 = 0.2917 | 0.841 ± 0.009 | 0.702 ± 0.007 | 0.578 ± 0.006
x1 = 0.3559 | 0.992 ± 0.01 | 0.808 ± 0.009 | 0.662 ± 0.007
x1 = 0.4223 | 1.147 ± 0.012 | 0.935 ± 0.01 | 0.746 ± 0.008
x1 = 0.4366 | 1.183 ± 0.013 | 0.966 ± 0.01 | 0.767 ± 0.008
x1 = 0.5416 | 1.445 ± 0.016 | 1.145 ± 0.013 | 0.905 ± 0.01
x1 = 0.6413 | 1.681 ± 0.019 | 1.319 ± 0.015 | 1.032 ± 0.012
x1 = 0.7365 | 1.875 ± 0.022 | 1.464 ± 0.017 | 1.142 ± 0.013
x1 = 0.8564 | 2.047 ± 0.024 | 1.577 ± 0.019 | 1.252 ± 0.015
x1 = 0.9246 | 2.077 ± 0.025 | 1.617 ± 0.02 | 1.283 ± 0.016
x2 = 0.0101 | 2.099 ± 0.026 | 1.645 ± 0.021 | 1.309 ± 0.017

CCOCCOCCOCC + CCCN
298.15 K, 101 kPa
Settings | viscosity [mPa·s]
x1 = 0.005 | 0.361 ± 0.007
x1 = 0.0106 | 0.367 ± 0.007
x1 = 0.0197 | 0.379 ± 0.007
x1 = 0.0413 | 0.402 ± 0.007
x1 = 0.0623 | 0.423 ± 0.007
x1 = 0.0897 | 0.451 ± 0.007
x1 = 0.1329 | 0.498 ± 0.007
x1 = 0.1762 | 0.538 ± 0.008
x1 = 0.2138 | 0.572 ± 0.008
x1 = 0.2434 | 0.6 ± 0.008
x1 = 0.2446 | 0.603 ± 0.008
x1 = 0.2849 | 0.636 ± 0.008
x1 = 0.2887 | 0.64 ± 0.008
x1 = 0.3251 | 0.672 ± 0.009
x1 = 0.3686 | 0.709 ± 0.009
x1 = 0.4053 | 0.737 ± 0.009
x1 = 0.4615 | 0.786 ± 0.01
x1 = 0.5261 | 0.848 ± 0.01
x1 = 0.5564 | 0.875 ± 0.01
x1 = 0.6025 | 0.919 ± 0.011
x1 = 0.6358 | 0.951 ± 0.011
x1 = 0.6749 | 0.988 ± 0.012
x1 = 0.7261 | 1.038 ± 0.012
x1 = 0.7852 | 1.09 ± 0.013
x1 = 0.8437 | 1.152 ± 0.014
x1 = 0.8917 | 1.201 ± 0.014
x1 = 0.9396 | 1.235 ± 0.015
x1 = 0.9698 | 1.248 ± 0.015

CC(C)OCCO + CCCNCCC
viscosity [mPa·s], 101.33 kPa
Settings | 298.15 K | 308.15 K | 318.15 K
x1 = 0.0484 | 0.544 ± 0.006 | 0.476 ± 0.005 | 0.41 ± 0.004
x1 = 0.0855 | 0.581 ± 0.006 | 0.505 ± 0.005 | 0.435 ± 0.005
x1 = 0.1225 | 0.625 ± 0.006 | 0.534 ± 0.006 | 0.458 ± 0.005
x1 = 0.1899 | 0.704 ± 0.007 | 0.599 ± 0.006 | 0.502 ± 0.005
x1 = 0.2514 | 0.798 ± 0.008 | 0.671 ± 0.007 | 0.555 ± 0.006
x1 = 0.3234 | 0.918 ± 0.01 | 0.76 ± 0.008 | 0.617 ± 0.007
x1 = 0.3933 | 1.046 ± 0.011 | 0.855 ± 0.009 | 0.685 ± 0.008
x1 = 0.4465 | 1.154 ± 0.012 | 0.941 ± 0.01 | 0.747 ± 0.008
x1 = 0.482 | 1.237 ± 0.013 | 1.001 ± 0.011 | 0.785 ± 0.009
x1 = 0.5205 | 1.313 ± 0.014 | 1.058 ± 0.012 | 0.83 ± 0.009
x1 = 0.6318 | 1.571 ± 0.018 | 1.242 ± 0.014 | 0.959 ± 0.011
x1 = 0.73 | 1.776 ± 0.02 | 1.381 ± 0.016 | 1.076 ± 0.013
x1 = 0.8358 | 1.959 ± 0.023 | 1.516 ± 0.018 | 1.187 ± 0.014
x1 = 0.919 | 2.057 ± 0.025 | 1.595 ± 0.02 | 1.268 ± 0.016
x1 = 0.9596 | 2.087 ± 0.026 | 1.618 ± 0.02 | 1.292 ± 0.016
